Results reported in US20030220211A1, “Methods, compositions, and articles for control of malodor produced by urea-containing body fluids” (The Procter & Gamble Company, priority 2000, published 2003).

Columns and labels:
[1] = molecular target: T1, Urease (Type III from jack beans) (Canavalia ensiformis, UniProt P07374); experiment: Ammonia odor detection on paper towel sheets treated with urea and urease solution; type: biochemical; conditions: paper towel sheet, 15 drops CuHEDTA Test Solution (urea 2M/tris + Cu/HEDTA complex solution 125 mM) + 2 drops urease solution; after 30 minutes at room temperature; smell
T1 construct: purchased Sigma U-1500
T1 sequence (P07374 whole entry, looked up): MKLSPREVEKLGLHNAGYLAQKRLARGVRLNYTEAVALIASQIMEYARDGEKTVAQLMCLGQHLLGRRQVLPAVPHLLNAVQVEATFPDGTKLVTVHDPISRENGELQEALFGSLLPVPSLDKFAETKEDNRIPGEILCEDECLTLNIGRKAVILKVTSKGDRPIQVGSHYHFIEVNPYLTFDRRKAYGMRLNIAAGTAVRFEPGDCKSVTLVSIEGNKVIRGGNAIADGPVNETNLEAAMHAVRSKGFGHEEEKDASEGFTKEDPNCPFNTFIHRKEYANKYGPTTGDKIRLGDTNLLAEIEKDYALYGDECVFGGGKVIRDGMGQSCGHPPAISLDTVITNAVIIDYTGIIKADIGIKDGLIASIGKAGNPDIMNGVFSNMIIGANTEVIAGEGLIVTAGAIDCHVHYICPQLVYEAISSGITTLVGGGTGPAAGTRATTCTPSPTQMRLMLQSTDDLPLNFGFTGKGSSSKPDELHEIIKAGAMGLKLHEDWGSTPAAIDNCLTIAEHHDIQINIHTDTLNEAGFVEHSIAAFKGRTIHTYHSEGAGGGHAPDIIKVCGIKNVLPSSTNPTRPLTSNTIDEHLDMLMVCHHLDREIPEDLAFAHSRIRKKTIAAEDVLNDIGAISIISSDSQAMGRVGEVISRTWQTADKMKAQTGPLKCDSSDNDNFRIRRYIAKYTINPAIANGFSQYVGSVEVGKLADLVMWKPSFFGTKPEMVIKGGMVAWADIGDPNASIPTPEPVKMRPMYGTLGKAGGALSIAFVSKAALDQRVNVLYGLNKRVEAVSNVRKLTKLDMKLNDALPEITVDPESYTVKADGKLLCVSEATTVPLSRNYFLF
Description: In such a test, conventional paper towel sheets are treated with both a urea solution and a urease solution. One such sheet serves as a reference sheet; another such sheet is treated with a urease solution which also contains a complex of copper chelated with N-(2-hydroxyethyl)ethylenediamine triacetic acid. After 30 minutes at room temperature, the sheets are evaluated for detectable ammonia order.
Dissolve 2.42 g of trizma-base in about 80 mL H2O deionized, adjust the pH to 7.5 with HCL 1M, bring to 100 mL with H2O deionized.
Dissolve 6 g of Urea in 50 mL of this buffer 0.2M, pH 7.5
Dissolve 2.13 g of CuCl in 50 mL of H2O deionized.
Dissolve 2.15 g of HEDTA in 25 mL of H2O deionized
Cu/HEDTA complex solution (125 mM)
Mix 25 ml of CuCl2 solution (250 mM) with 25 mL HEDTA solution (250 mM)at adjusted with NaOH to pH around 7
Urease solution (10 mg/mL)
Weigh 0.020 g of urease and add 3 mL of tris buffer pH 7.5, 0.2M. This solution is stable for about 1 week provided it is stored at 4° C. in a refrigerator.
10 mL urea 2M/tris+500 mL of H2O deionized buffer.
10 mL Urea 2M/tris+500 mL Cu/TED complex solution buffer (125 mM)
Half of a white BOUNTY™® towel sheet is put in each of two Petri dishes. Into one dish, 15 drops of the reference solution are poured evenly so that the center of the towel sheet is evenly wet. […]

urine malodor = conditions: 5 mMol/liter solution, 250 ml sprayed once per day for 11 days over 4 m^2 (105 mg/m^2)
Description: A liquid product for treating hard surfaces is prepared and tested by spraying the product on walls, floors and other surfaces surrounding the urinals in a public men's restroom. Product preparation, use and test results are as follows:
A 5 mMol/liter solution of CuHEDTA is prepared from:
1721 mg of HEDTA (trisodium salt hydrate, MW=344.21);
1250 mg of CuSO4 (pentahydrate, MW=250);
1000 ml of deionized water.
Using a spray-gun, 250 ml of this solution is sprayed once per day for 11 days over a 4 m^2 area surrounding the urinals in a public men's restroom.

Question: Which results are given for O=C([O-])CN(CCN(CCO)CC(=O)O)CC(=O)[O-].[Cu+2] [CuHEDTA, copper salt of N-hydroxyethyl-ethylenediamine-triacetic acid]?
Answer: detectable ammonia odor [1]: No ammonia odor is detectable; urine malodor control in the men's restroom (urine malodor): effectively controlled for the full 11 day period
